Reference: PMC10180076, “Novel Biologically Active N-Substituted Benzimidazole Derived Schiff Bases: Design, Synthesis, and Biological Evaluation” (Molecules, 2023)
Converted amounts (≈) assume the structure as drawn. Like-named read-outs stand apart in the source and are kept apart here.

Tests used:
[1] = test system: Z-138, non-Hodgkin lymphoma; experiment: Proliferation assay (MTS, 72 h), Z-138; assay type: cell-based, human; details: Homo sapiens, Z-138
Method in brief: (§1)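 Over a range of 100–0.006 µM in seven steps, compounds were incubated with the cells for 72 h prior to MTS measurement. Adherent HCT-116 was treated after overnight attachment, while HL-60, Z-138 and DND-41 went directly onto compound; duplicate independent runs.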

[2] = test system: K-562, chronic myeloid leukemia; experiment: Proliferation assay (MTS, 72 h), K-562; assay type: cell-based, human; details: Homo sapiens, K562
Method in brief: (§2)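 Test compounds were assayed at seven concentrations (100 to 0.006 µM) against cells cultured in 10% FBS-supplemented medium. After a 72 h incubation, MTS reagent was used to assess proliferation.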

[3] = test system: HL-60, acute myeloid leukemia; experiment: Proliferation assay (MTS, 72 h), HL-60; assay type: cell-based, human; details: Homo sapiens, HL-60
Method in brief: as §1

S. aureus ATCC 29213 = experiment: Broth microdilution MIC, S. aureus; assay type: cell-based; details: Staphylococcus aureus, ATCC29213; read-out: MIC against S. aureus
Method: (§3) Selected bacterial strains were Gram-negative E. coli, K. pneumoniae, A. baumannii and P. aeruginosa and Gram-positive S. aureus, S. pneumoniae, and E. faecalis. The synthesized compounds were prepared as 10 mM DMSO solutions and tested in a final concentration range of 0.2–100 µM [39].
(§4) Broth microdilution testing was performed according to CLSI (Clinical Laboratory Standards Institute) guidelines. The MIC (minimal inhibitory concentration) value was defined as the last tested concentration of the compound at which there was no visible growth of bacteria. Inoculums for each microorganism were prepared using the direct colony suspension method, where broth solutions that achieved turbidity equivalent to 0.5 McFarland standard were additionally diluted 100× with Ca adjusted MH media (Becton Dickinson, Franklin Lakes, NJ, USA). All of the test plates were incubated for 16–24 h at 37 °C.
(§5) Methods for dilution of antimicrobial susceptibility tests for bacteria that grow aerobically followed M07, 11th edition, 2018, and Clinical and Laboratory Standards Institute (CLSI) guidelines. Performance standards for antimicrobial susceptibility testing followed the M100, 28th edition, 2018.

[4] = test system: K. pneumoniae ATCC 700603; experiment: Broth microdilution MIC, K. pneumoniae; assay type: cell-based; details: Klebsiella pneumoniae, ATCC700603; read-out: MIC against K. pneumoniae
Method: as §3, §4, §5

E. faecalis ATCC 29212 = experiment: Broth microdilution MIC, E. faecalis; assay type: cell-based; details: Enterococcus faecalis, ATCC29212; read-out: MIC against E. faecalis
Method: as §3, §4, §5

[5] = test system: DND-41, acute lymphoblastic leukemia; experiment: Proliferation assay (MTS, 72 h), DND-41; assay type: cell-based, human; details: Homo sapiens, DND41
Method in brief: as §1

NCI-H460, lung carcinoma = experiment: Proliferation assay (MTS, 72 h), NCI-H460; assay type: cell-based, human; details: Homo sapiens, NCI-H460
Method in brief: as §2

E. coli efflux del = experiment: microbe, parasite or virus in culture; assay type: cell-based; details: for MIC E. coli efflux del: Table 2 prints no unit, μM for compounds, antibiotics tested at 0.125–64 µg/mL
Method: as §3, §4, §5

[6] = test system: Capan-1, pancreatic adenocarcinoma; experiment: Proliferation assay (MTS, 72 h), Capan-1; assay type: cell-based, human; details: Homo sapiens, CAPAN-1
Method in brief: as §2

LN-229, glioblastoma = experiment: Proliferation assay (MTS, 72 h), LN-229; assay type: cell-based, human; details: Homo sapiens, LN-229
Method in brief: as §2

[7] = test system: HCT-116, colorectal carcinoma; experiment: Proliferation assay (MTS, 72 h), HCT-116; assay type: cell-based, human; details: Homo sapiens, HCT-116
Method in brief: as §1

[8] = test system: influenza A/H1N1 (A/Ned/378/05); experiment: Antiviral CPE reduction assay, influenza A/H1N1 in MDCK; assay type: cell-based; details: Influenza A virus, MDCK cells, 100 CCID50, MTS
[9] = test system: respiratory syncytial virus A (Long); experiment: Antiviral CPE reduction assay, RSV A in HEL 299; assay type: cell-based; details: human respiratory syncytial virus; HEL 299 cells, 100 CCID50, MTS
[10] = test system: influenza B (B/Ned/537/05); experiment: Antiviral CPE reduction assay, influenza B in MDCK; assay type: cell-based; details: Influenza B virus; MDCK cells, 100 CCID50, MTS
[11] = test system: influenza A/H3N2 (A/HK/7/87); experiment: Antiviral CPE reduction assay, influenza A/H3N2 in MDCK; assay type: cell-based; details: Influenza A virus, MDCK cells, 100 CCID50, MTS
in vitro [12] = details: human
sindbis virus = experiment: Antiviral CPE reduction assay, Sindbis virus in Huh-7; assay type: cell-based; details: Huh-7 cells, 100 CCID50, MTS
[13] = test system: human coronavirus HCoV-NL63; experiment: Antiviral CPE reduction assay, HCoV-NL63 in Huh-7; assay type: cell-based; details: Huh-7 cells, 100 CCID50, MTS
in vitro [14] = details: dog
Zika virus (Mr776) = experiment: Antiviral CPE reduction assay, Zika virus in Huh-7; assay type: cell-based; details: Huh-7 cells, 100 CCID50, MTS
human cancer cell lines = experiment: Proliferation assay (MTS, 72 h), range over several cancer cell lines; assay type: cell-based
From the text: Human cancer cells used in this manuscript, namely Capan-1, HCT-116, NCI-H460, LN-229, HL-60, K-562, and Z-138, were acquired from the American Type Culture Collection (ATCC, Manassas, VA, USA), while the DND-41 cell line was purchased from the Deutsche Sammlung von Mikroorganismen und Zellkulturen (DSMZ Leibniz-Institut, Braunschweig, Germany). Culture media were purchased from Gibco Life Technologies, Merelbeke, Belgium, and supplemented with 10% fetal bovine serum (HyClone, Cytiva, Marlborough, MA, USA). Vincristine and docetaxel, which were used as the reference inhibitors, were purchased from Selleckchem (Munich, Germany). Stock solutions were prepared in DMSO.
Adherent cell lines LN-229, HCT-116, and NCI-H460 and Capan-1 cells were seeded at a density between 500 and 1500 cells per well, in 384-well tissue culture plates (Greiner, Kremsmünster, Austria). […]
Suspension cell lines HL-60, K-562, Z-138, and DND-41 were seeded at densities ranging from 2500 to 5500 cells per well in 384-well culture plates containing the test compounds at the same concentration points. The cells were incubated for 72 h with the compounds and were then analyzed using the CellTiter 96® AQueous One Solution Cell Proliferation Assay (MTS) reagent (Promega, Madison, WI, USA) according to the manufacturer’s instructions. […]

[15] = test system: herpes simplex virus-1 (HSV-1 KOS); experiment: Antiviral CPE reduction assay, HSV-1 KOS in HEL 299; assay type: cell-based; details: Human alphaherpesvirus 1; HEL 299 cells, 100 CCID50, MTS
in vitro [16] = details: human; remark: listed apart in the source
[17] = test system: human coronavirus HCoV-OC43; experiment: microbe, parasite or virus in culture; assay type: cell-based; details: Betacoronavirus 1, OC43; HEL 299 cells, 100 CCID50, MTS; read-out: Antiviral Activity (EC50/μM) HCoV OC43 HEL 299
[18] = test system: yellow fever virus (YFV 17D); experiment: microbe, parasite or virus in culture; assay type: cell-based; details: Huh-7, read-out: Antiviral Activity (EC50/μM) YFV 17D Huh-7
[19] = test system: human coronavirus HCoV-229E; experiment: organism not typed; assay type: cell-based; details: HEL 299 cells, 100 CCID50, MTS; read-out: Antiviral Activity (EC50/μM) HCoV 229E HEL 299

| Compound | IC50 [1] | IC50 [2] | IC50 [3] | MIC (S. aureus ATCC 29213) | MIC (E. faecalis ATCC 29212) | IC50 [5] | IC50 (NCI-H460, lung carcinoma) | MIC E. coli efflux del (E. coli efflux del) | IC50 [6] | IC50 (LN-229, glioblastoma) | IC50 [7] | EC50 [8] | EC50 [9] | EC50 [10] | EC50 [11] | EC50 (sindbis virus) | EC50 [13] | CC50 (in vitro [14]) | EC50 (Zika virus (Mr776)) | melting point | other results |
| --- | --- | --- | --- | --- | --- | --- | --- | --- | --- | --- | --- | --- | --- | --- | --- | --- | --- | --- | --- | --- | --- |
| CCCCCCn1c(N)nc2ccccc21 [Compound 23, 2-Amino-1-hexylbenzimidazole] | 44.7 µM | 46.7 µM | 44.9 µM | 16 µM (≈ 3.48 µg/mL) | 32 µM (≈ 6.95 µg/mL) | 47.7 µM | 60.2 µM | 32 | 46.5 µM | 45.2 µM | 57.4 µM |  |  |  |  |  |  |  |  |  | MIC [4]: 32 µM (≈ 6.95 µg/mL); MIC (E. coli efflux del; Escherichia coli, read-out: MIC against E. coli efflux dell): 32 µM (≈ 6.95 µg/mL) |
| CCN(CC)c1ccc(/C=N/c2nc3ccc(C#N)cc3n2CC(C)C)c(O)c1 [Compound 31, (E)-2-((4-(Diethylamino)-2-hydroxybenzylidene)amino)-1-isobutyl-1H-benzo[d]imidazole-6-carbonitrile] | > 100 µM | > 100 µM | 47.6 µM |  |  | 34.4 µM | > 100 µM |  | 32.8 µM | > 100 µM | > 100 µM | > 100 µM | > 100 µM | > 100 µM | > 100 µM | > 100 µM | 32 µM | 1.3 µM | > 100 µM | 205 to 208 °C | CC50 (in vitro [12]): > 100 µM; IC50 (human cancer cell lines; three cancer cell types, read-out: IC50, range over three cancer cell types): 32.8 to 47.6 µM; EC50 [15]: > 100 µM; CC50 (in vitro [16]): 85.7 µM; EC50 [17]: > 100 µM; EC50 [18]: > 100 µM; EC50 [19]: > 100 µM |
| Cn1c(/N=C/c2ccc([N+](=O)[O-])cc2)nc2ccc(C#N)cc21 [Compound 37, (E)-1-Methyl-2-((4-nitrobenzylidene)amino)-1H-benzo[d]imidazole-6-carbonitrile] | > 100 µM | > 100 µM | > 100 µM | 32 µM (≈ 9.77 µg/mL) |  | > 100 µM | > 100 µM | >64 | > 100 µM | > 100 µM | > 100 µM |  |  |  |  |  |  |  |  |  |  |
| CCN(CC)c1ccc(/C=N/c2nc3ccccc3n2-c2ccccc2)c(O)c1 [Compound 40, (E)-5-(Diethylamino)-2-(((1-phenyl-1H-benzo[d]imidazol-2-yl)imino)methyl)phenol] | 4.4 µM | 12.9 µM | 1.1 µM |  |  | 2.2 µM | 43.7 µM |  | 2.4 µM | 21.5 µM | 9.6 µM |  |  |  |  |  |  |  |  | 197 to 201 °C | IC50 (human cancer cell lines; Capan-1, DND-41, HL-60 and Z-138 cancer cell lines, read-out: IC50, range over several cancer cell lines): 1.1 to 4.4 µM |
| CCN(CC)c1ccc(/C=N/c2nc3ccc(C#N)cc3n2-c2ccccc2)c(O)c1 [Compound 41, (E)-2-((4-(Diethylamino)-2-hydroxybenzylidene)amino)-1-phenyl-1H-benzo[d]imidazole-6-carbonitrile] | 35.2 µM | > 100 µM | 49.6 µM |  | 32 µM (≈ 13.1 µg/mL) | 76.3 µM | > 100 µM | >64 | 69.5 µM | > 100 µM | > 100 µM | > 100 µM | > 100 µM | > 100 µM | > 100 µM | > 100 µM | > 100 µM | 71.6 µM | > 100 µM | 111 to 114 °C | CC50 (in vitro [12]): > 100 µM; EC50 [15]: > 100 µM; CC50 (in vitro [16]): > 100 µM; EC50 [17]: 89.5 µM; EC50 [18]: > 100 µM; EC50 [19]: > 100 µM |
| CCCCCCn1c(/N=C/c2ccc(N(C)C)cc2)nc2ccccc21 [Compound 42, (E)-4-(((1-Hexyl-1H-benzo[d]imidazol-2-yl)imino)methyl)-N,N-dimethylaniline] | > 100 µM | 90.8 µM | 73.2 µM | 32 µM (≈ 11.2 µg/mL) | 32 µM (≈ 11.2 µg/mL) | > 100 µM | 64.4 µM | 64 | > 100 µM | > 100 µM | > 100 µM | > 100 µM | > 100 µM | > 100 µM | > 100 µM | > 100 µM | > 100 µM | 34.6 µM | > 100 µM | 231 to 234 °C | EC50 [15]: > 100 µM; EC50 [17]: > 100 µM; EC50 [18]: > 100 µM; EC50 [19]: 34.7 µM |
